Measured values as given in paper PMC8151276, “An Integrated Approach toward NanoBRET Tracers for Analysis of GPCR Ligand Engagement” (Molecules, 2021).
Values joined by “and” are separate entries in the source; they are usually repeats but may differ in a detail not shown here. Equal entries are not always repeated. Where two headings read alike, the source gives them in different places.

Columns and labels:
Type in all cases: binding
LGR4 = biological target: T1, LGR4 (Homo sapiens, UniProt Q9BXB1); experiment: NanoBRET screen HiBiT-LGR4 in HEK293
T1 construct: purchased Promega (in-house HiBiT-GPCR construct library, NanoBRET)
T1 sequence (Q9BXB1 25-951): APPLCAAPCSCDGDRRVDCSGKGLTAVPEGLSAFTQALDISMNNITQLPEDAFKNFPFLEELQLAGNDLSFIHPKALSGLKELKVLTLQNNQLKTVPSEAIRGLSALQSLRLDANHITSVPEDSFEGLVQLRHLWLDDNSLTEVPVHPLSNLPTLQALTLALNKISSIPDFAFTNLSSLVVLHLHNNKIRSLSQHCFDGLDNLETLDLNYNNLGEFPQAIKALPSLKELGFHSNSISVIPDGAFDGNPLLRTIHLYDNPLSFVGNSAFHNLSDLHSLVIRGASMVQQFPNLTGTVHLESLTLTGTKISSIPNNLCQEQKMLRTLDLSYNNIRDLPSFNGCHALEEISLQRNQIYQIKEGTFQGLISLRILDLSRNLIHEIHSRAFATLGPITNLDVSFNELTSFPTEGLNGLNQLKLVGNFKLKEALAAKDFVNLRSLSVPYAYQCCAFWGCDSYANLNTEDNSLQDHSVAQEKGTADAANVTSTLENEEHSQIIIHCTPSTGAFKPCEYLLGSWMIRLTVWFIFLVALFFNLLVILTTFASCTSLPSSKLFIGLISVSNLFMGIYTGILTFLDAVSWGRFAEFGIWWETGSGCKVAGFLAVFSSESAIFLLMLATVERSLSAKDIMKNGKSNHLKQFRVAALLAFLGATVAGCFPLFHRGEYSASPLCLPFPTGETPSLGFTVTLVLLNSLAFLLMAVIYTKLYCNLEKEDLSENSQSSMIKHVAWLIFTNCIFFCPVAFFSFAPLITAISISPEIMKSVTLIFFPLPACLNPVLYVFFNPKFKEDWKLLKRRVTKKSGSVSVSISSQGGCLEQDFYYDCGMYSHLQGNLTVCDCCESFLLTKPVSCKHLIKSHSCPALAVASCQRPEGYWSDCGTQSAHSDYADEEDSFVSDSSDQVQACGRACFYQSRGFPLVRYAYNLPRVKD
Protocol: (§1) Each tracer candidate was screened across the entire library of HiBiT-GPCR constructs using NanoBRET as the detection modality. As depicted in Figure 4A, the specificity of interactions was evaluated through decrease in BRET due to competitive displacement of a bound tracer by excess parental compound. Each tracer was analyzed for binding to each HiBiT-GPCR fusion in the absence and in the presence of competing parental compound. Briefly, HEK293 cells were transfected with HiBiT-GPCR constructs diluted into promoterless DNA to reduce expression and maximize translocation to the cell surface. Each tracer candidate was then screened at concentrations of 1 μM and 0.1 μM across cells expressing these fusions. Cells were treated for 1.5 h with tracer either alone or in the presence of 20 μM competing parental compound (i.e., control). BRET was measured upon addition of purified LgBiT and subsequent complementation with HiBiT genetically fused to a GPCR. The specificity of interactions was assessed through a decrease in BRET signal due to competitive displacement of the bound tracer. To further gauge the robustness of these interactions, the fold response over the control (i.e., BRETtracer/BRETcontrol) was calculated. We chose a 1.5-fold response, which translates to ≥7-fold signal over noise as the minimal threshold required to score an interaction as positive. […]. Below we highlight the screening results obtained for our exemplary fluorescent tracers based on Clozapine, Amitriptyline and AZD1283.
(§2) HiBiT-GPCR DNA constructs were diluted in 10 mM Tris pH 8 to a final concentration of 0.01 μg/μL, arrayed in 96-well plates and stored at −20 °C. For transfection, HEK293 cells were suspended in Opti-MEM (without phenol red) supplemented with 2% fetal bovine serum (Seradigm) and 100 units/mL penicillin–streptomycin (Gibco) at a final concentration of 220,000 cells/mL and dispensed into white 96-well plates at 90 μL/well. Subsequent transfections and screens were carried using an Agilent Bravo Automated Liquid Handling Platform. First, the 96-well HiBiT DNA arrays were diluted 25-fold in Opti-MEM (without serum or phenol red) to a final concentration of 0.0004 μg/μL and 20 μL of the diluted DNAs were transferred into new 96-well plates. Next, promoterless carrier DNA (1 μg/μL) was diluted 25-fold (0.04 μg/μL) and then dispensed into the diluted arrays at 20 μL/well. Following brief mixing, Viafect transfection reagent (Promega) diluted 16-fold into Opti-MEM was dispensed into the plates at 40 μL/well. After mixing by pipetting, plates were incubated for 10 min on the pipetting station deck. The DNA-transfection reagent complexes were then added to plates containing cells. To facilitate the screen, 10 μL of DNA-transfection reagent complexes were added in duplicates to the top 4 and bottom 4 rows, resulting in two identical 48-well arrays per plate. Plates with transfected cells were incubated for 18–20 h at 37 °C/5% CO2. A screen of each tracer across the entire library using two different concentrations requires duplicate plates of transfected cells. Depending on the number of tracers being screened, transfections can be scaled up using the same ratios. The next day, for each tracer, four 20× screening solutions in tracer dilution buffer (Promega) were prepared: two duplicates at final concentration of 20 μM and two duplicates at a final concentration of 2 μM. A competing unmodified compound was added to one of each duplicate at a final concentration of 400 μM. The four resulting solutions were diluted 4-fold in Opti-MEM without serum or phenol red to generate 5× solutions (5 µM and 0.5 µM tracer +/− 100 μM competing compound). To screen the library, a BioTek MultiFlo FX liquid dispenser was used to dispense 22.5 µL of tracer solution to the top 4 rows and 22.5 µL tracer + competing compound solution to the 4 bottom rows. Plates were briefly mixed on an orbital shaker and incubated for 1.5 h at room temperature. […]

MC4R = biological target: T2, MC4R (Homo sapiens, UniProt P32245); experiment: NanoBRET screen HiBiT-MC4R in HEK293
T2 construct: purchased Promega (in-house HiBiT-GPCR construct library, NanoBRET)
T2 sequence (P32245 whole entry): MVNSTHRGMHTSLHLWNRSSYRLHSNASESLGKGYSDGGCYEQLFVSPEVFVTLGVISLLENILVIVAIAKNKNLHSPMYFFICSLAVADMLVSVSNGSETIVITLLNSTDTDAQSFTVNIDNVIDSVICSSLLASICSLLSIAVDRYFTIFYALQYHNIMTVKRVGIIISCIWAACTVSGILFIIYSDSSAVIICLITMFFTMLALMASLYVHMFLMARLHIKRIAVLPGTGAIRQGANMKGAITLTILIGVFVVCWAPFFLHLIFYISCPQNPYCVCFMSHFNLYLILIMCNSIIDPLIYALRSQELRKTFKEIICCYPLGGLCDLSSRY
Protocol: as §1, §2

GRM1 = biological target: T3, GRM1 (Homo sapiens, UniProt Q13255); experiment: NanoBRET screen HiBiT-GRM1 in HEK293; conditions: GRM1
T3 construct: purchased Promega (in-house HiBiT-GPCR construct library, NanoBRET)
T3 sequence (Q13255 19-1194): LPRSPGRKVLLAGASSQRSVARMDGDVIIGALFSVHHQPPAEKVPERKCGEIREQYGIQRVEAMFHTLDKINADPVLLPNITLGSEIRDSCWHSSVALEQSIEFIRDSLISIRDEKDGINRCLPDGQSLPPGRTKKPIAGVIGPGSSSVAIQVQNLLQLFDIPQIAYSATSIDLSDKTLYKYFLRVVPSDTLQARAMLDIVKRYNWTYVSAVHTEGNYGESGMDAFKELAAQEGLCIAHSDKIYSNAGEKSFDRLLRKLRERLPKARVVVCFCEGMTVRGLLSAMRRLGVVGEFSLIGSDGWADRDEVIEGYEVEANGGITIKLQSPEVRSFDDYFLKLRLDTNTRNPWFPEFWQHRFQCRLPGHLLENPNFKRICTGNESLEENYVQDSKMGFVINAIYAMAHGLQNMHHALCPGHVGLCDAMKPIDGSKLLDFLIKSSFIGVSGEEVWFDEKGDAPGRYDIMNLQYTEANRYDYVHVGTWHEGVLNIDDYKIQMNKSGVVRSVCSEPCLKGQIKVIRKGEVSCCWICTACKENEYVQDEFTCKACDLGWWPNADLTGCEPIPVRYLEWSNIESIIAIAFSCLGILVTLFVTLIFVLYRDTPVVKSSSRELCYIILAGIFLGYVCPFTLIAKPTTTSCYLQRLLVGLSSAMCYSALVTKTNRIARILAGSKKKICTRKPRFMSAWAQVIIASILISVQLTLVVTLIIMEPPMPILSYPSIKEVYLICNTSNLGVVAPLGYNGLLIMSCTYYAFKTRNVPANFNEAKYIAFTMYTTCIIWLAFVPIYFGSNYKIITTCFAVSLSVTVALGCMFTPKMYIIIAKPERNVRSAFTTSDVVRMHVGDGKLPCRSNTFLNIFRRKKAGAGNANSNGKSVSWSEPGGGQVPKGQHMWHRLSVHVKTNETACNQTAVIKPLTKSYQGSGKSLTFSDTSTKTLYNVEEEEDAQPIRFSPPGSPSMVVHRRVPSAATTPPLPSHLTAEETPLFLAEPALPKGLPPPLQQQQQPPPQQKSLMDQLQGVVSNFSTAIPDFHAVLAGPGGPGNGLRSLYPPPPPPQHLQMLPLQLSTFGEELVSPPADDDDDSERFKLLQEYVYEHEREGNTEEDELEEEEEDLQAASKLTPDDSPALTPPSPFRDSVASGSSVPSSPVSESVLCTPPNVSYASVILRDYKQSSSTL
Protocol: as §1, §2

HTR2A = biological target: T4, HTR2A (Homo sapiens, UniProt P28223); experiment: NanoBRET screen HiBiT-HTR2A in HEK293
T4 construct: purchased Promega (in-house HiBiT-GPCR construct library, NanoBRET)
T4 sequence (P28223 whole entry): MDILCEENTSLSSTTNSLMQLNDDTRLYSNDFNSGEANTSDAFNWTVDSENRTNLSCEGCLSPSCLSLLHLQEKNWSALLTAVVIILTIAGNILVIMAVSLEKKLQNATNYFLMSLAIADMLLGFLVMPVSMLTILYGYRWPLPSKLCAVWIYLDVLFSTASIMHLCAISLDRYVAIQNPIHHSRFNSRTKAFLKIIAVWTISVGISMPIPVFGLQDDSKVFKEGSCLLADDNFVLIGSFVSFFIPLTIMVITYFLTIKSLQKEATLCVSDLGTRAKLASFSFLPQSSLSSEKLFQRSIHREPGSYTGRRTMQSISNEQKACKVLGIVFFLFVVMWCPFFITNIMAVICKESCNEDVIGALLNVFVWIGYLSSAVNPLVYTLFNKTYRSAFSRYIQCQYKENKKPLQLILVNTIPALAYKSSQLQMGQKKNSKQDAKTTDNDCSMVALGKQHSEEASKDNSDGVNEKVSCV

SMILES | NanoBRET Fold Response (GRM1; tracer 0.1μM) | NanoBRET Fold Response (GRM1; tracer 1μM) | NanoBRET Fold Response (LGR4; LGR4, tracer 0.1μM) | NanoBRET Fold Response (LGR4; LGR4, tracer 1μM) | NanoBRET Fold Response (MC4R; MC4R, tracer 0.1μM) | NanoBRET Fold Response (MC4R; MC4R, tracer 1μM) | further results
CN1CCN(C2=Nc3cc(Cl)ccc3Nc3ccc(CNC(=O)CCOCCOCCOCCOCCNC(=O)CCc4ccc5n4[B-](F)(F)[N+]4=C(c6ccc[nH]6)C=CC4=C5)cc32)CC1 [Clozapine-b-2-NB590] |  |  |  |  |  |  | NanoBRET Fold Response (LGR4; LGR4, 0.1μM tracer): 1.00; NanoBRET Fold Response (LGR4; LGR4, 1μM tracer): 1.04; NanoBRET Fold Response (MC4R; MC4R, 0.1μM tracer): 1.03; NanoBRET Fold Response (MC4R; MC4R, 1μM tracer): 1.05; NanoBRET Fold Response (GRM1; 0.1μM tracer): 1.05; NanoBRET Fold Response (GRM1; 1μM tracer): 0.74
CN(C)CCC=C1c2ccccc2CCc2ccc(C(=O)NCCNC(=O)CCOCCOCCOCCOCCNC(=O)CCc3ccc4n3[B-](F)(F)[N+]3=C(c5ccc[nH]5)C=CC3=C4)cc21 [Amitriptyline-b-2-NB590] | 0.77 | 0.97 |  |  |  |  | NanoBRET Fold Response (LGR4; tracer at 0.1μM): 1.00; NanoBRET Fold Response (LGR4; tracer at 1μM): 0.98; NanoBRET Fold Response (MC4R; tracer at 0.1μM): 1.00; NanoBRET Fold Response (MC4R; tracer at 1μM): 1.02
CCOC(=O)c1cc(C#N)c(N2CCC(C(=O)NS(=O)(=O)Cc3ccccc3/C=C/C(=O)NCCNC(=O)CCc3ccc4n3[B-](F)(F)[N+]3=C(c5ccc[nH]5)C=CC3=C4)CC2)nc1C [AZD1283-1-NB590] |  |  |  |  |  |  | NanoBRET Fold Response (HTR2A; HTR2A, 0.1μM): 0.96; NanoBRET Fold Response (HTR2A; HTR2A, 1μM): 1.01; NanoBRET Fold Response (LGR4; LGR4, 0.1μM): 1.01; NanoBRET Fold Response (LGR4; LGR4, 1μM): 0.97; NanoBRET Fold Response (MC4R; MC4R, 0.1μM): 0.98; NanoBRET Fold Response (MC4R; MC4R, 1μM): 1.01; NanoBRET Fold Response (GRM1; 0.1μM): 1.28; NanoBRET Fold Response (GRM1; 1μM): 0.71
CC(C)N(CC[C@H](c1ccccc1)c1cc(CCNC(=O)CCOCCOCCOCCOCCNC(=O)CCc2ccc3n2[B-](F)(F)[N+]2=C(c4ccc[nH]4)C=CC2=C3)ccc1O)C(C)C [Tolterodine-2-NB590] | 0.94 | 0.81 | 1.12 | 1.24 | 1.07 | 1.00 | NanoBRET Fold Response (HTR2A; HTR2A, tracer 0.1μM): 1.05; NanoBRET Fold Response (HTR2A; HTR2A, tracer 1μM): 1.11
CC(C)N(CC[C@H](c1ccccc1)c1cc(CCNC(=O)c2ccc(CNC(=O)CCc3ccc4n3[B-](F)(F)[N+]3=C(c5ccc[nH]5)C=CC3=C4)cc2)ccc1O)C(C)C [Tolterodine-BZ-NB590] | 0.88 | 0.19 | 1.02 | 1.02 | 1.00 | 1.01 | NanoBRET Fold Response (HTR2A; HTR2A, tracer 0.1μM): 0.93; NanoBRET Fold Response (HTR2A; HTR2A, tracer 1μM): 1.04
O=C(CCOCCOCCOCCOCCNC(=O)CCc1ccc2n1[B-](F)(F)[N+]1=C(c3ccc[nH]3)C=CC1=C2)NCCCN1CCN(C2=Nc3ccccc3Oc3ccc(Cl)cc32)CC1 [Loxapine-a-2-NB590] | 0.93 | 0.59 | 0.97 | 1.04 | 1.04 | 1.04 | NanoBRET Fold Response (HTR2A): 1.71 and 1.28
CN1CCN(C2=Nc3cc(Cl)ccc3N(CC(=O)NCCOCCOCCOCCOCCNC(=O)CCc3ccc4n3[B-](F)(F)[N+]3=C(c5ccc[nH]5)C=CC3=C4)c3ccccc32)CC1 [Clozapine-c-2-NB590] |  |  |  |  |  |  | NanoBRET Fold Response (LGR4; LGR4, 0.1μM tracer): 0.96; NanoBRET Fold Response (LGR4; LGR4, 1μM tracer): 1.03; NanoBRET Fold Response (MC4R; MC4R, 0.1μM tracer): 1.02; NanoBRET Fold Response (MC4R; MC4R, 1μM tracer): 1.06; NanoBRET Fold Response (GRM1; 0.1μM tracer): 0.99; NanoBRET Fold Response (GRM1; 1μM tracer): 1.00
Cc1nc2n(c(=O)c1CCN1CCC(c3noc4cc(F)ccc34)CC1)CCCC2OC(=O)NCCOCCOCCOCCOCCNC(=O)CCc1ccc2n1[B-](F)(F)[N+]1=C(c3ccc[nH]3)C=CC1=C2 (stereo not drawn) [Risperidone-2-NB590] | 0.97 | 0.84 | 0.93 | 0.98 | 1.03 | 1.05 | 
O=C(CCc1ccc2n1[B-](F)(F)[N+]1=C(c3ccc[nH]3)C=CC1=C2)NCCOCCOCCNC(=O)OCCOCCN1CCN(C2=Nc3ccccc3Sc3ccccc32)CC1 [Quetiapine-a-2-NB590] | 0.74 | 1.00 | 1.00 | 1.05 | 0.97 | 1.06 | 
O=C(CCc1ccc2n1[B-](F)(F)[N+]1=C(c3ccc[nH]3)C=CC1=C2)NCc1ccc(C(=O)NCCOCCOCCNCC(O)COc2cccc3ccccc23)cc1 (stereo not drawn) [Propranolol-3-NB590] |  |  |  |  |  |  | NanoBRET Fold Response (LGR4; LGR4, 0.1μM): 0.97; NanoBRET Fold Response (LGR4; LGR4, 1μM): 1.02; NanoBRET Fold Response (MC4R; MC4R, 0.1μM): 0.98; NanoBRET Fold Response (MC4R; MC4R, 1μM): 0.99; NanoBRET Fold Response (GRM1; 0.1μM): 0.72; NanoBRET Fold Response (GRM1; 1μM): 0.69
O=C(CCc1ccc2n1[B-](F)(F)[N+]1=C(c3ccc[nH]3)C=CC1=C2)NCc1ccc(C(=O)NCCOCCC(=O)N[C@@H]2CC[C@@]3(O)[C@H]4Cc5ccc(O)c6c5[C@@]3(CCN4CC3CC3)[C@H]2O6)cc1 [Naltrexone-3-NB590] | 0.93 | 0.75 | 0.94 | 0.87 | 1.06 | 1.06 | 
Cc1cc2c(s1)Nc1ccccc1N=C2N1CCN(CCCNC(=O)CCOCCOCCOCCOCCNC(=O)CCc2ccc3n2[B-](F)(F)[N+]2=C(c4ccc[nH]4)C=CC2=C3)CC1 [Olanzapine-a-2-NB590] | 0.89 | 1.26 | 0.98 | 1.30 | 1.00 | 1.07 | 
N#CN/C(=N\CCNC(=O)c1ccc(N)cc1)NCCCOc1cccc(CN2CCCCC2)c1 [Aminopotentidine (unmodified)] |  |  |  |  |  |  | NanoBRET Fold Response (HTR2A; HTR2A, other tracers/Aminopotentidine (unmodified), 0.1μM): 1.10; NanoBRET Fold Response (HTR2A; HTR2A, other tracers/Aminopotentidine (unmodified), 1μM): 1.07
